From PubChem BioAssay AID330 (DTP/NCI, 2004) come the findings set out here.

Where “and” joins values, the source holds several entries; their conditions need not be identical. Equal entries are not always repeated. Toxic doses and inconclusive results are not listed. Peptide text beside a SMILES is read from it. * marks the point of attachment. Cbz = O=C(OCc1ccccc1)*; βAla = NCCC(=O)O

In the test the test system is P388 leukemia ip, CD2F1 mice, survival T/C. As to the kind of experiment: NCI In Vivo Anticancer Drug Screen. Data for tumor model P388 Leukemia (intraperitoneal) in CD2F1 (CDF1) mice. The settings on record: endpoint: median survival time, higher = longer survival. The gist of the method:
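Mice carrying the transplanted tumor received test compound or vehicle. Survival was recorded in each group, and the value is the treated-group measurement divided by that of the vehicle-treated control group.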

Where [1] appears, read: dose: 25.0 mg/kg/injection, schedule: Q01DX001 (ip), vehicle: saline with Tween-80.
Where [2] appears, read: dose: 50.0 mg/kg/injection, schedule: Q01DX001 (ip), vehicle: saline with Tween-80.
[3] abbreviates: dose: 100.0 mg/kg/injection, schedule: Q01DX001 (ip), vehicle: saline with Tween-80.
[4] abbreviates: dose: 50.0 mg/kg/injection, schedule: Q01DX005 (ip), vehicle: saline with Tween-80.
Where [5] appears, read: dose: 100.0 mg/kg/injection, schedule: Q01DX005 (ip), vehicle: saline with Tween-80.
Setting [6] is: dose: 200.0 mg/kg/injection, schedule: Q01DX005 (ip), vehicle: saline with Tween-80.
Where [7] appears, read: dose: 50.0 mg/kg/injection, schedule: Q01DX005 (ip), vehicle: Klucel (hydroxypropylcellulose) (HPC).
Where [8] appears, read: dose: 100.0 mg/kg/injection, schedule: Q01DX005 (ip), vehicle: Klucel (hydroxypropylcellulose) (HPC).
[9] abbreviates: dose: 200.0 mg/kg/injection, schedule: Q01DX005 (ip), vehicle: Klucel (hydroxypropylcellulose) (HPC).
Where [10] appears, read: dose: 60.0 mg/kg/injection, schedule: Q01DX005 (ip), vehicle: Klucel (hydroxypropylcellulose) (HPC).
[11] abbreviates: dose: 120.0 mg/kg/injection, schedule: Q01DX005 (ip), vehicle: Klucel (hydroxypropylcellulose) (HPC).
Setting [12] is: dose: 100.0 mg/kg/injection, schedule: Q01DX009 (ip), vehicle: saline.
Setting [13] is: dose: 50.0 mg/kg/injection, schedule: Q01DX009 (ip), vehicle: Klucel (hydroxypropylcellulose) (HPC).
Setting [14] is: dose: 100.0 mg/kg/injection, schedule: Q01DX009 (ip), vehicle: Klucel (hydroxypropylcellulose) (HPC).
Where [15] appears, read: dose: 50.0 mg/kg/injection, schedule: Q01DX009 (ip), vehicle: saline with Tween-80.

Turning to `O=S(=O)(O)c1ccccc1O`, the T/C runs as follows: under setting [1], 111 % of control; under setting [2], 98 % of control; under setting [3], 99 % of control.

As for `FC(F)(F)c1cccc(-n2nnnc2Oc2ccc(-c3ccccc3)cc2)c1`, the T/C was 97 % of control under setting [4], 101 % of control under setting [5] and 90 % of control under setting [6].

As for `COc1cc2c(cc1OC)C(=O)Nc1nc(N)nc(N)c1C2`, the T/C is 108 % of control under setting [3] and 119 % of control (dose: 200.0 mg/kg/injection, schedule: Q01DX001 (ip), vehicle: saline with Tween-80).

For the molecule `CN1CN(c2ccc([N+](=O)[O-])cc2)N=N1`, the T/C by setting is: under setting [7], 95 % of control; under setting [8], 97 % of control; under setting [9], 94 % of control.

For the molecule `C/C(=C(/O)c1ccc(Cl)cc1)c1nc2ccc(Cl)cc2[nH]c1=O`, the T/C reads like this: under setting [10], 96 % of control; under setting [11], 101 % of control.

Take `CC(C)(C)CC(C)(C)c1ccc(O)cc1`: the T/C is 100 % of control (dose: 66.0 mg/kg/injection, schedule: Q01DX009 (ip), vehicle: saline); 100 % of control under setting [12]; 122 % of control (dose: 150.0 mg/kg/injection, schedule: Q01DX009 (ip), vehicle: saline); 118 % of control (dose: 200.0 mg/kg/injection, schedule: Q01DX009 (ip), vehicle: saline sonified).

Consider `COC(=O)C1([Se]c2ccccc2)CCN2CCC(OCc3ccccc3[N+](=O)[O-])C21` (configuration not stated), for which the T/C is 90 % of control under setting [1]; 105 % of control under setting [2]; 108 % of control and 89 % of control under setting [3].

On to `CN(C)c1ccc(/C=C/c2ccnc3c(O)cccc23)cc1`, for which the T/C runs as follows: under setting [13], 113 % of control; under setting [14], 104 % of control; (dose: 200.0 mg/kg/injection, schedule: Q01DX009 (ip), vehicle: Klucel (hydroxypropylcellulose) (HPC)) 95 % of control.

`Oc1cc(O)c2c(c1)Oc1cc(O)cc(O)c1C2`: the T/C runs as follows: (dose: 25.0 mg/kg/injection, schedule: Q04DX003 (ip), vehicle: saline with Tween-80) 100 % of control; under setting [4], 106 % of control; (dose: 50.0 mg/kg/injection, schedule: Q04DX003 (ip), vehicle: saline with Tween-80) 98 % of control; under setting [5], 109 % of control; (dose: 100.0 mg/kg/injection, schedule: Q04DX003 (ip), vehicle: saline with Tween-80) 97 % of control; under setting [6], 115 % of control.

In the case of `COc1cc(OC)c2c(=O)c3cc(OC)c(OC)cc3oc2c1`, the T/C runs as follows: (dose: 8.3 mg/kg/injection, schedule: Q01DX009 (ip), vehicle: Klucel (hydroxypropylcellulose) (HPC)) 98 % of control; (dose: 16.5 mg/kg/injection, schedule: Q01DX009 (ip), vehicle: Klucel (hydroxypropylcellulose) (HPC)) 117 % of control; (dose: 33.0 mg/kg/injection, schedule: Q01DX009 (ip), vehicle: Klucel (hydroxypropylcellulose) (HPC)) 107 % of control; (dose: 66.0 mg/kg/injection, schedule: Q01DX009 (ip), vehicle: Klucel (hydroxypropylcellulose) (HPC)) 107 % of control.

In the case of `CN(C(=S)Nc1ccccc1)c1nnn(C)n1`, the T/C by setting is: under setting [15], 98 % of control; (dose: 100.0 mg/kg/injection, schedule: Q01DX009 (ip), vehicle: saline with Tween-80) 100 % of control; (dose: 200.0 mg/kg/injection, schedule: Q01DX009 (ip), vehicle: saline with Tween-80) 107 % of control.

On to `O=c1c2ccccc2c2ccccc2c(=O)n1-c1cc2c3ccccc3ccc2c2ccccc12`, for which the T/C is 100 % of control under setting [10]; 99 % of control under setting [11]; 95 % of control (dose: 240.0 mg/kg/injection, schedule: Q01DX005 (ip), vehicle: Klucel (hydroxypropylcellulose) (HPC)).

On to `Nc1ncnc2c1nnn2C1OC(CO)C(O)C1O` (configuration not stated), for which the T/C was 157 % of control under setting [13] and 100 % of control under setting [14].

Consider `CC(CN=C(CC(=O)C(F)(F)F)C(F)(F)F)N=C(CC(=O)C(F)(F)F)C(F)(F)F.[Ni]` (configuration not stated), for which the T/C runs as follows: (dose: 100.0 mg/kg/injection, schedule: Q04DX002 (ip), vehicle: saline with Tween-80) 98 % of control; (dose: 200.0 mg/kg/injection, schedule: Q04DX002 (ip), vehicle: saline with Tween-80) 98 % of control; (dose: 400.0 mg/kg/injection, schedule: Q04DX002 (ip), vehicle: saline with Tween-80) 93 % of control.

On to `C=C1C2CCC3C45C=NCC(C)(CCC4)C5CCC3(C2)C1OC(C)=O` (configuration not stated), for which the T/C is, setting by setting: (dose: 2.0 mg/kg/injection, schedule: Q01DX009 (ip), vehicle: Klucel (hydroxypropylcellulose) (HPC)) 104 % of control; (dose: 4.0 mg/kg/injection, schedule: Q01DX009 (ip), vehicle: Klucel (hydroxypropylcellulose) (HPC)) 94 % of control; (dose: 8.0 mg/kg/injection, schedule: Q01DX009 (ip), vehicle: Klucel (hydroxypropylcellulose) (HPC)) 104 % of control; (dose: 16.0 mg/kg/injection, schedule: Q01DX009 (ip), vehicle: Klucel (hydroxypropylcellulose) (HPC)) 93 % of control.

Regarding `CC(=O)C(=N/O)/C(C)=N/NC(=O)c1ccncc1`, the T/C was 106 % of control (dose: 100.0 mg/kg/injection, schedule: Q04DX002 (ip), vehicle: saline); 103 % of control (dose: 200.0 mg/kg/injection, schedule: Q04DX002 (ip), vehicle: saline); 102 % of control (dose: 400.0 mg/kg/injection, schedule: Q04DX002 (ip), vehicle: saline).

With `COc1ccc2c(c1)OC1COc3cc(OC)c(OC)cc3C1C2=O` (configuration not stated), the T/C reads like this: (dose: 12.5 mg/kg/injection, schedule: Q01DX009 (ip), vehicle: saline) 101 % of control; (dose: 25.0 mg/kg/injection, schedule: Q01DX009 (ip), vehicle: saline) 94 % of control; (dose: 50.0 mg/kg/injection, schedule: Q01DX009 (ip), vehicle: saline) 92 % of control; under setting [12], 93 % of control.

As for `Nc1cc2[nH]c(=O)oc2cc1Cl`, the T/C under setting [7] was 94 % of control, the T/C under setting [8] is 100 % of control and the T/C under setting [9] was 94 % of control.

On to `COc1cc2c(c(OC)c1OC)-c1ccc(SC)c(=O)cc1[C@@H](NC(=O)C(F)(F)F)CC2`, for which the T/C was 110 % of control and 117 % of control (dose: 0.08 mg/kg/injection, schedule: Q01DX009 (ip), vehicle: Klucel (hydroxypropylcellulose) (HPC)); 120 % of control and 124 % of control (dose: 0.16 mg/kg/injection, schedule: Q01DX009 (ip), vehicle: Klucel (hydroxypropylcellulose) (HPC)).

For `NC(=S)c1cccc(/C=N/O)n1`, the T/C reads like this: (dose: 50.0 mg/kg/injection, schedule: Q04DX003 (ip), vehicle: Klucel (hydroxypropylcellulose) (HPC)) 104 % of control; (dose: 100.0 mg/kg/injection, schedule: Q04DX003 (ip), vehicle: Klucel (hydroxypropylcellulose) (HPC)) 99 % of control; (dose: 200.0 mg/kg/injection, schedule: Q04DX003 (ip), vehicle: Klucel (hydroxypropylcellulose) (HPC)) 95 % of control.

For the molecule `CC(=O)C1=C(N)C(C#N)=C(C)C(C)(O)C1` (configuration not stated), the T/C was 108 % of control (dose: 50.0 mg/kg/injection, schedule: Q01DX009 (ip), vehicle: saline + alcohol); 90 % of control (dose: 100.0 mg/kg/injection, schedule: Q01DX009 (ip), vehicle: saline + alcohol); 89 % of control (dose: 200.0 mg/kg/injection, schedule: Q01DX009 (ip), vehicle: saline + alcohol).

For the molecule `CCN(CC)CCNC(=O)c1ccc2c(c1O)C(=O)c1ccccc1C2=O`, the T/C runs as follows: under setting [4], 106 % of control; under setting [5], 106 % of control.

As to `O=C(O)CNC(=O)CNC(=O)CCNC(=O)OCc1ccccc1` ({Cbz-βAla}-Gly-Gly-OH), the T/C under setting [4] is 101 % of control, the T/C under setting [5] was 97 % of control and the T/C under setting [6] was 108 % of control.

In the case of `Cc1ccccc1N1CCN(C(=O)c2nc3ccccc3[nH]2)CC1`, the T/C was 91 % of control under setting [7], 87 % of control under setting [8] and 101 % of control under setting [9].

Take `CCCCCCC[n+]1cccc(S(=O)(=O)N2CCOCC2)c1`: the T/C is 98 % of control (dose: 12.5 mg/kg/injection, schedule: Q01DX009 (ip), vehicle: saline with Tween-80); 98 % of control (dose: 25.0 mg/kg/injection, schedule: Q01DX009 (ip), vehicle: saline with Tween-80); 98 % of control under setting [15].
